Laboratory results published in article PMC9499386, “New Inhibitors of the Human p300/CBP Acetyltransferase Are Selectively Active against the Arabidopsis HAC Proteins” (International Journal of Molecular Sciences, 2022).

Key:
[1] = target: T1, HAC1 catalytic domain (recombinant HAC1) (Arabidopsis thaliana, UniProt Q9C5X9); test: colorimetric antibody-based HAT activity assay (EpiGentek P-4003), […] nm; assay type: biochemical
T1 construct: HAT catalytic domain aa 1081-1517 (nt 3241-4551 of CDS), C-terminal 6xHis tag, pET28a, E. coli BL21(DE3), partially purified, 52 kDa
T1 sequence (Q9C5X9 1081-1517): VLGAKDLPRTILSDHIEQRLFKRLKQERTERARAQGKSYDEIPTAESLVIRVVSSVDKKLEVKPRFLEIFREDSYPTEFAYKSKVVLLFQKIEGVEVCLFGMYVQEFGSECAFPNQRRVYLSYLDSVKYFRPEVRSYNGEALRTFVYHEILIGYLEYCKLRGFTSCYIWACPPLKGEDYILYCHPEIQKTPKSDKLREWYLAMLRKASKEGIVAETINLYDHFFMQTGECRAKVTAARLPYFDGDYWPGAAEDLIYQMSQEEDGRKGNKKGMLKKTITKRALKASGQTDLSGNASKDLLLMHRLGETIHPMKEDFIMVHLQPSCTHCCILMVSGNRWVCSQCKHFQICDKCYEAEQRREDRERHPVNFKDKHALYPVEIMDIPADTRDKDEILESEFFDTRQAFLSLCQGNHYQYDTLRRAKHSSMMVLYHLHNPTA

[2] = target: T1, HAC1 catalytic domain (recombinant HAC1); test: as above; assay type: biochemical; settings: kit HAT substrate as acetyl acceptor, 45 min at 37 °C; partially purified enzyme

Row | Structure (SMILES) | inhibition at 6 µM [1] [%] | colorimetric antibody-based HAT activity assay (EpiGentek P-4003), 450 nm [2]
1 | O=C1C(Cc2ccc(O)c(Br)c2)CCCC1Cc1ccc(O)c(Br)c1 (centres unmarked) [2c, 2,6-Bis(3-bromo-4-hydroxybenzyl)cyclohexanone] | 83 | –
2 | CC(=O)SCCNC(=O)CCNC(=O)[C@H](O)C(C)(C)COP(=O)(O)OP(=O)(O)OC[C@H]1O[C@@H](n2cnc3c(N)ncnc32)[C@H](O)[C@@H]1OP(=O)(O)O [acetyl-CoA] | – | strip wells were incubated with acetyl-CoA and partially purified HAC1 catalytic domain
